The record followed here is patent US7615643B2 (SmithKline Beecham Corporation, priority 2006, dated 2009).

Counter-ions that a name gives are not always drawn. A value given as a limit tells only on which side of the number the result lay.

This test has as its target T1, PLK1 (Homo sapiens, UniProt P53350).
T1 construct: PLK kinase domain (amino acids 21-346 preceded by MKKGHHHHHHD); made in house; host or cells: baculovirus infected T. ni cells
Description: Assay for inhibition of PLK1 (SPA kinase assay). The test is classed as biochemical. The conditions noted are these: 1 μM ATP, 2 nM PLK1 kinase domain, read-out: PLK1 pIC50 (converted). As for the experimental part:
I. Assay for Inhibition of PLK1
A. Preparation of 6× N-terminal His-tagged PLK Kinase Domain
6× N-terminal His-tagged PLK kinase domain (amino acids 21-346 preceded by MKKGHHHHHHD) SEQ ID: No. 1. was prepared from baculovirus infected T. ni cells under polyhedrin promoter control. All procedures were performed at 4° C. Cells were lysed In 50 mM HEPES, 200 mM NaCl, 50 mM imidazole, 5% glycerol; pH 7.5. The homogenate was centrifuged at 14K rpm in a SLA-1500 rotor for 1 hr and the supernatant filtered through a 1.2 micron filter. The supernatant was loaded onto a Nickel chelating Sepharose (Amersham Pharmacia) column and washed with lysis buffer. Protein was eluted using 20%, 30% and 100% buffer B steps where buffer B was 50 mM HEPES, 200 mM NaCl, 300 mM imidazole, 5% glycerol; pH 7.5. Fractions containing PLK were determined by SDS-PAGE. Fractions containing PLK were diluted five-fold with 50 mM HEPES, 1 mM DTT, 5% glycerol; pH 7.5, then loaded on an SP Sepharose (Amersham Pharmacia) column. After washing the column with 50 mM HEPES, 1 mM DTT, 5% glycerol; pH 7.5, PLK was step eluted with 50 mM HEPES, 1 mM DTT, 500 mM NaCl; 5% glycerol; pH 7.5. PLK was concentrated using a 10 kDa molecular weight cutoff membrane and then loaded onto a Superdex 200 gel filtration (Amersham Pharmacia) column equilibrated in 25 mM HEPES, 1 mM DTT, 500 mM NaCl, 5% glycerol; pH 7.5. Fractions containing PLK were determined by SDS-PAGE. PLK was pooled, aliquoted and stored at −80° C. Samples were quality controlled using mass spectrometry, N-terminal sequencing and amino acid analysis.
B. Enzyme Activity +/− Inhibitors was Determined as Follows:
All measurements were obtained under conditions where signal production increased linearly with time and enzyme. Test compounds were added to white 384-well assay plates (0.1 μL for 10 μL and some 20 μL assays, 1 μL for some 20 μL assays) at variable known concentrations in 100% DMSO. DMSO (1-5% final, as appropriate) and EDTA (65 mM in reaction) were used as controls. Reaction Mix was prepared as follows at 22° C.: • 25 mM HEPES, pH 7.2 • 15 mM MgCl2 • 1 μM ATP • 0.05 μCi/well ^33P-γ ATP (10 Ci/mMol) • 1 μM substrate peptide (Biotin-Ahx-SFNDTLDFD) SEQ ID:No. 2. • 0.15 mg/mL BSA • 1 mM DTT • 2 nM PLK1 kinase domain (added last)
Reaction Mix (10 or 20 μL) was quickly added to each well immediately following addition of enzyme via automated liquid handlers and incubated 1-1.5 h at 22° C. The 20 μL enzymatic reactions were stopped with 50 μL of stop mix (50 mM EDTA, 4.0 mg/mL Streptavidin SPA beads in Standard Dulbecco's PBS (without Mg^2+ and Ca^2+), 50 μM ATP) per well. The 10 μL reactions were stopped with 10 μL of stop mix (50 mM EDTA, 3.0 mg/mL Streptavidin-coupled SPA imaging Beads (“LeadSeeker”) in Standard Dulbecco's PBS (without Mg^2+ and Ca^2+), 50 μM ATP) per well. Plates were sealed with clear plastic seals, spun at 500×g for 1 min or settled overnight, and counted in Packard TopCount for 30 seconds/well (regular SPA) or imaged using a Viewlux imager (LeadSeeker SPA). Signal above background (EDTA controls) was converted to percent Inhibition relative to that obtained in control (DMSO-only) wells.

T1 sequence (P53350 21-346): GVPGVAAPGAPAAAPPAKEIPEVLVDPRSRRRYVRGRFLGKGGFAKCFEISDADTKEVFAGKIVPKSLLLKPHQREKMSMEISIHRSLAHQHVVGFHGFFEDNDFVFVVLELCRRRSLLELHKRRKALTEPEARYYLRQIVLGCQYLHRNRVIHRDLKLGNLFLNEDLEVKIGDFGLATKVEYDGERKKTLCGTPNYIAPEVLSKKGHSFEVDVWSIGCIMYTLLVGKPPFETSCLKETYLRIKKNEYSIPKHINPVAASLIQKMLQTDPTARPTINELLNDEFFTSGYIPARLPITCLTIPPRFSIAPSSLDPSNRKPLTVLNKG

As to `CN1CCC(Oc2cccc(COc3cc(-n4cnc5cc(-c6cnn(C)c6)ccc54)sc3C(N)=O)c2)CC1` [Example 84, 3-[({3-[(1-Methyl-4-piperidinyl)oxy]phenyl}methyl)oxy]-5-[5-(1-methyl-1H-pyrazol-4-yl)-1H-benzimidazol-1-yl]-2-thiophenecarboxamide], the IC50 was below 100 nM.

Turning to `Cn1cc(-c2ccc3c(c2)ncn3-c2cc(OCc3cccc(OC4CCNCC4)c3)c(C(N)=O)s2)cn1` [Example 83, 5-[5-(1-Methyl-1H-pyrazol-4-yl)-1H-benzimidazol-1-yl]-3-({[3-(4-piperidinyloxy)phenyl]methyl}oxy)-2-thiophenecarboxamide], the IC50 is below 100 nM. Under `Cc1ccc(-c2ccc3c(c2)ncn3-c2cc(O[C@H](C)c3cccc(OC4CCN(C)CC4)c3Cl)c(C(N)=O)s2)cn1` [Example 10, 3-[((1R)-1-{2-chloro-3-[(1-methyl-4-piperidinyl)oxy]phenyl}ethyl)oxy]-5-[5-(6-methyl-3-pyridinyl)-1H-benzimidazol-1-yl]-2-thiophenecarboxamide] stands below 100 nM; under `C[C@@H](Oc1cc(-n2cnc3cc(Cl)c(Cl)cc32)sc1C(N)=O)c1cccc(OC2CCNCC2)c1Cl` [Example 71, 3-({(1R)-1-[2-Chloro-3-(4-piperidinyloxy)phenyl]ethyl}oxy)-5-(5,6-dichloro-1H-benzimidazol-1-yl)-2-thiophenecarboxamide], below 100 nM. Under `C[C@@H](Oc1cc(-n2cnc3cc(F)c(F)cc32)sc1C(N)=O)c1cccc(OC2CCNCC2)c1Cl` [Example 65, 3-({(1R)-1-[2-chloro-3-(4-piperidinyloxy)phenyl]ethyl}oxy)-5-(5,6-difluoro-1H-benzimidazol-1-yl)-2-thiophenecarboxamide] stands below 100 nM. `CC(Oc1cc(-n2cnc3cc(-c4cnn(C)c4)ccc32)sc1C(N)=O)c1cccc(OC2CCN(C)CC2)n1` (racemic) [Example 82, (+/−)-3-[(1-{6-[(1-Methyl-4-piperidinyl)oxy]-2-pyridinyl}ethyl)oxy]-5-[5-(1-methyl-1H-pyrazol-4-yl)-1H-benzimidazol-1-yl]-2-thiophenecarboxamide]: the IC50 is below 100 nM. On to `C[C@@H](Oc1cc(-n2cnc3cc(-c4cnn(C)c4)ccc32)sc1C(N)=O)c1cccc(OCC2CCNCC2)c1Cl` [Example 44, 3-[((1R)-1-{2-Chloro-3-[(4-piperidinylmethyl)oxy]phenyl}ethyl)oxy]-5-[5-(1-methyl-1H-pyrazol-4-yl)-1H-benzimidazol-1-yl]-2-thiophenecarboxamide trifluoroacetate], for which the IC50 was below 100 nM. As to `C[C@@H](Oc1cc(-n2cnc3ccc(C#N)cc32)sc1C(N)=O)c1cccc(OC2CCN(C)CC2)c1Cl` [Example 4, 3-((1R)-1-{2-chloro-3-[(1-methylpiperidin-4-yl)oxy]phenyl}-ethoxy)-5-(6-cyano-1H-benzimidazol-1-yl)thiophene-2-carboxamide], the IC50 was below 100 nM. Consider `COc1cc2ncn(-c3cc(O[C@H](C)c4cccc(OCC5CCN(C(=O)OC(C)(C)C)CC5)c4Cl)c(C(N)=O)s3)c2cc1OC` [Example 39, 1,1-Dimethylethyl 4-[({3-[(1R)-1-({2-(aminocarbonyl)-5-[5,6-bis(methyloxy)-1H-benzimidazol-1-yl]-3-thienyl}oxy)ethyl]-2-chlorophenyl}oxy)methyl]-1-piperidinecarboxylate], for which the IC50 was below 100 nM. Under `C[C@@H](Oc1cc(-n2cnc3cc(F)c(F)cc32)sc1C(N)=O)c1cccc(OC2CCN(C)CC2)c1Cl` [Example 66, 3-[((1R)-1-{2-chloro-3-[(1-methyl-4-piperidinyl)oxy]phenyl}ethyl)-oxy]-5-(5,6-difluoro-1H-benzimidazol-1-yl)-2-thiophenecarboxamide] stands below 100 nM. With `C[C@@H](Oc1cc(-n2cnc3cc(-c4cnn(C)c4)ccc32)sc1C(N)=O)c1cccc(OC2CCN(C)CC2)c1Cl` [Example 48, 3-[((1R)-1-{2-Chloro-3-[(1-methyl-4-piperidinyl)oxy]phenyl}ethyl)oxy]-5-[5-(1-methyl-1H-pyrazol-4-yl)-1H-benzimidazol-1-yl]-2-thiophenecarboxamide], the IC50 is below 100 nM. With `C[C@@H](Oc1cc(-n2cnc3cc(-c4cnn(C)c4)ccc32)sc1C(N)=O)c1ccc(F)c(OC2CCNCC2)c1Cl` [Example 33, 3-({(1R)-1-[2-Chloro-4-fluoro-3-(4-piperidinyloxy)phenyl]ethyl}oxy)-5-[5-(1-methyl-1H-pyrazol-4-yl)-1H-benzimidazol-1-yl]-2-thiophenecarboxamide], the IC50 is below 100 nM. Consider `C[C@@H](Oc1cc(-n2cnc3ccccc32)sc1C(N)=O)c1cccc(OCCN2CCNCC2)c1Cl` [Example 16, 5-(1H-benzimidazol-1-yl)-3-{[(1R)-1-(2-chloro-3-{[2-(1-piperazinyl)ethyl]oxy}phenyl)ethyl]oxy}-2-thiophenecarboxamide], for which the IC50 was below 100 nM. The result for `C[C@@H](Oc1cc(-n2cnc3cc(Cl)ccc32)sc1C(N)=O)c1cccc(OC[C@@H]2CNCCO2)c1Cl` [Example 28, 5-(5-Chloro-1H-benzimidazol-1-yl)-3-{[(1R)-1-(2-chloro-3-{[(2S)-2-morpholinylmethyl]oxy}phenyl)ethyl]oxy}-2-thiophenecarboxamide] reads below 100 nM. Under `C[C@@H](Oc1cc(-n2cnc3ccc(CS(C)(=O)=O)cc32)sc1C(N)=O)c1cccc(OC2CCNCC2)c1Cl` [Example 54, 3-({(1R)-1-[2-Chloro-3-(4-piperidinyloxy)phenyl]ethyl}oxy)-5-{6-[(methylsulfonyl)methyl]-1H-benzimidazol-1-yl}-2-thiophenecarboxamide] stands below 100 nM. Turning to `C[C@@H](Oc1cc(-n2cnc3ccc(OC(F)(F)F)cc32)sc1C(N)=O)c1cccc(OC2CCN(C)CC2)c1Cl` [Example 64, 3-[((1R)-1-{2-chloro-3-[(1-methyl-4-piperidinyl)oxy]phenyl}ethyl)oxy]-5-{6-[(trifluoromethyl)oxy]-1H-benzimidazol-1-yl}-2-thiophenecarboxamide], the IC50 is below 100 nM.

Consider `C[C@@H](Oc1cc(-n2cnc3cc(-c4cnn(C)c4)ccc32)sc1C(N)=O)c1cccc(OC2CCN(CCC(F)(F)F)CC2)c1Cl` [Example 30, 3-{[(1R)-1-(2-chloro-3-{[1-(3,3,3-trifluoropropyl)-4-piperidinyl]oxy}phenyl)ethyl]oxy}-5-[5-(1-methyl-1H-pyrazol-4-yl)-1H-benzimidazol-1-yl]-2-thiopenecarboxamide], for which the IC50 was below 100 nM. Consider `COc1cc2ncn(-c3cc(O[C@H](C)c4cccc(OCC5CCN(C)CC5)c4Cl)c(C(N)=O)s3)c2cc1OC` [Example 41, 5-[5,6-Bis(methyloxy)-1H-benzimidazol-1-yl]-3-{[(1R)-1-(2-chloro-3-{[(1-methyl-4-piperidinyl)methyl]oxy}phenyl)ethyl]oxy}-2-thiophenecarboxamide], for which the IC50 was below 100 nM. In the case of `C[C@@H](Oc1cc(-n2cnc3cc(-c4cnn(C)c4)ccc32)sc1C(N)=O)c1cccc(OC2CCN(C(=O)OC(C)(C)C)CC2)c1Cl` [Example 46, 1,1-Dimethylethyl 4-({3-[(1R)-1-({2-(aminocarbonyl)-5-[5-(1-methyl-1H-pyrazol-4-yl)-1H-benzimidazol-1-yl]-3-thienyl}oxy)ethyl]-2-chlorophenyl}oxy)-1-piperidinecarboxylate], the IC50 is below 100 nM.

With `C[C@@H](Oc1cc(-n2cnc3ccccc32)sc1C(N)=O)c1cccc(OCCN2CCN(C)CC2)c1Cl` [Example 17, 5-(1H-benzimidazol-1-yl)-3-{[(1R)-1-(2-chloro-3-{[2-(4-methyl-1-piperazinyl)ethyl]oxy}phenyl)ethyl]ocy}-2-thiophenecarboxamide], the IC50 was below 100 nM.
